In ChEMBL document CHEMBL1671716, “Antimicrobial susceptibility patterns for recent clinical isolates of anaerobic bacteria in South Korea” (2010) one finds MIC50 and MIC90 data, which are given here for 1 molecule.

The structures appear in SMILES notation. In brackets after ≈: the same amount, converted by molar mass.

Test [1] deals with Clostridium perfringens. As to the kind of experiment: Antimicrobial activity against Clostridium perfringens after 48 hrs by agar dilution method. In kind it is functional. For orientation: In agar dilution, organisms are placed on agar that contains the substance at set levels.
Test [2] concerns Clostridioides difficile. Briefly: Antimicrobial activity against Clostridium difficile after 48 hrs by agar dilution method. In kind it is functional.

Turning to `CN[C@H](CC(C)C)C(=O)N[C@H]1C(=O)N[C@@H](CC(N)=O)C(=O)N[C@H]2C(=O)N[C@H]3C(=O)N[C@H](C(=O)N[C@H](C(=O)O)c4cc(O)cc(O)c4-c4cc3ccc4O)[C@H](O)c3ccc(c(Cl)c3)Oc3cc2cc(c3O[C@@H]2O[C@H](CO)[C@@H](O)[C@H](O)[C@H]2O[C@H]2C[C@](C)(N)[C@H](O)[C@H](C)O2)Oc2ccc(cc2Cl)[C@H]1O` [VANCOMYCIN], in test [1], the MIC50 amounted to 0.5 µg/mL (≈ 0.345 µM) and the MIC90 was determined as 0.5 µg/mL (≈ 0.345 µM). In test [2], the MIC50 amounted to 0.5 µg/mL (≈ 0.345 µM) and the MIC90 was found to be 2 µg/mL (≈ 1.38 µM).

The term MIC50 denotes an inhibitory concentration at the 50% level, which refers to growth in some studies and to a panel of isolates in others. Read a high MIC50 as weaker potency. For orientation: MIC90 means an inhibitory concentration at the 90% level, which refers to growth in some studies and to a panel of isolates in others.
